Results from patent publication US9745321B2, “Fused pyrimidine compound, intermediate, preparation method therefor, and composition and application thereof” (SHANGHAI YINGLI PHARMACEUTICAL CO., LTD, priority 2013, dated 2017).
Each block holds one compound with its values, some of them ahead of it.

Legend:
[1] = biological target: PI3Kδ (Homo sapiens (Human), UniProt O00329); test: PI3Kδ enzyme activity inhibition IC50 evaluation assay; format: biochemical; settings: luminescence, 25 μM ATP, 50 μM PIP2, 2 hrs room temperature
Chain of PI3Kδ (O00329 whole entry): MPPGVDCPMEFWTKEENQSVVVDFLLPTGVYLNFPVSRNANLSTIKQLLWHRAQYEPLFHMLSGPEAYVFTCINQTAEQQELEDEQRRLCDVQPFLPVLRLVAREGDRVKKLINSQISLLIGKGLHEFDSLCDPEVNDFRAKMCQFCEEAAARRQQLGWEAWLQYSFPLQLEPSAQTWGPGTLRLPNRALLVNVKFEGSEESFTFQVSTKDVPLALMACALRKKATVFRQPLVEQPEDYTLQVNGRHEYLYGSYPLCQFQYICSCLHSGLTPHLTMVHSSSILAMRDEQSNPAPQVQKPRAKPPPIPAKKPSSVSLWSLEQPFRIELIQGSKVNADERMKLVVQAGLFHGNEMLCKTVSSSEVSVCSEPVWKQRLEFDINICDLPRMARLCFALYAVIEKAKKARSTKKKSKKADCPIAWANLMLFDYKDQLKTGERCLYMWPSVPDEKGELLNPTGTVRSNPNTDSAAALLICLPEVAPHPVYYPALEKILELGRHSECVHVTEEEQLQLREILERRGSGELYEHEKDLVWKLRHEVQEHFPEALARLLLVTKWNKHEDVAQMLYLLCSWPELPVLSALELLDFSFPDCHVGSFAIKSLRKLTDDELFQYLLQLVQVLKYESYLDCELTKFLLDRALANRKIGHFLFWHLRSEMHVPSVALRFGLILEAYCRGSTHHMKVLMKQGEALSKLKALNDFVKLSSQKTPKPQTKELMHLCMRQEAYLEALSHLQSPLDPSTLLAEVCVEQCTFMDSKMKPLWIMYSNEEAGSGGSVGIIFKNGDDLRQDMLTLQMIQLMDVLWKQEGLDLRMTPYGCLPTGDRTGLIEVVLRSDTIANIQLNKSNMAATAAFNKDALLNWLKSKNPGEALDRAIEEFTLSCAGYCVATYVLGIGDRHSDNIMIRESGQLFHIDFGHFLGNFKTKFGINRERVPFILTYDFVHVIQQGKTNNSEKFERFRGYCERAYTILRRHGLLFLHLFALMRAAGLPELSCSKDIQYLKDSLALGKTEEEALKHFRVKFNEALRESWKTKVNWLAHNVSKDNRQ
Chain of PI3Kδ (P27986 whole entry partner): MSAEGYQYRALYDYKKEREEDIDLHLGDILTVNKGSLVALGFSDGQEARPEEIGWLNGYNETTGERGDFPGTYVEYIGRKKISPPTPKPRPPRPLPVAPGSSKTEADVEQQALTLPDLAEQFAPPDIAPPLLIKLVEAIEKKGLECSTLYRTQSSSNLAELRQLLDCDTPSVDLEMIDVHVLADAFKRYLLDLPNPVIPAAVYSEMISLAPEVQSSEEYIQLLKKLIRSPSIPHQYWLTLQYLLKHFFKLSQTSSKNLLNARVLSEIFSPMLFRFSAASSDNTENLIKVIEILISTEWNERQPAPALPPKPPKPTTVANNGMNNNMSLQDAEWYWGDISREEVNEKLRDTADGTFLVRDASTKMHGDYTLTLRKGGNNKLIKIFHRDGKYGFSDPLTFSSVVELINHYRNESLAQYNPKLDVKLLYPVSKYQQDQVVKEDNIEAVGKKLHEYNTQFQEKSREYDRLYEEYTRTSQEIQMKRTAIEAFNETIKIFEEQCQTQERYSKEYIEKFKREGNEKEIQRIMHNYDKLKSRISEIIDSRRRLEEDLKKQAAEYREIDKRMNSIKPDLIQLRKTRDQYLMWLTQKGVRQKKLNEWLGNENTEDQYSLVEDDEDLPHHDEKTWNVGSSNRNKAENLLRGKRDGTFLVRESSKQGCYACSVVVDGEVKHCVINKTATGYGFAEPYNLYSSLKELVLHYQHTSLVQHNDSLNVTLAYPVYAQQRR
Experimental: (§1) PI3Kα, PI3Kδ, PI3Kβ and PI3Kγ Enzyme Activity Inhibition IC50 Evaluation Assay
• 1. Buffer preparation: 50 mM HEPES, pH 7.5, 3 mM MgCl2, 1 mM EGTA, 100 mM NaCl, 0.03% CHAPS. • 2. Compound was formulated in 100% DMSO in a concentration gradient, and added to a 384-well plate to a final DMSO concentration of 1%. • 3. PI3Kα, PI3Kδ, PI3Kβ and PI3Kγ enzymes were diluted to an optimum concentration with the following buffer: 50 mM HEPES, pH 7.5, 3 mM MgCl2, 1 mM EGTA, 100 mM NaCl, 0.03% CHAPS, 2 mM DTT, and transferred to a 384-well plate and incubated with the compound for a certain time. • 4. […] For PI3Kβ and PI3Kγ, it was still necessary to further add 10 μL ADP-Glo Detection Reagent, and then equilibrated at room temperature for 30 minutes. • 5. Read Luminescense with FlexStation, and calculate the inhibition rate as the average of two tests.

[2] = biological target: PI3Kα (Homo sapiens (Human), UniProt P42336); test: PI3Kα enzyme activity inhibition IC50 evaluation assay; format: biochemical; settings: ratio PI3Kα vs PI3Kδ
Chain of PI3Kα (P42336 whole entry): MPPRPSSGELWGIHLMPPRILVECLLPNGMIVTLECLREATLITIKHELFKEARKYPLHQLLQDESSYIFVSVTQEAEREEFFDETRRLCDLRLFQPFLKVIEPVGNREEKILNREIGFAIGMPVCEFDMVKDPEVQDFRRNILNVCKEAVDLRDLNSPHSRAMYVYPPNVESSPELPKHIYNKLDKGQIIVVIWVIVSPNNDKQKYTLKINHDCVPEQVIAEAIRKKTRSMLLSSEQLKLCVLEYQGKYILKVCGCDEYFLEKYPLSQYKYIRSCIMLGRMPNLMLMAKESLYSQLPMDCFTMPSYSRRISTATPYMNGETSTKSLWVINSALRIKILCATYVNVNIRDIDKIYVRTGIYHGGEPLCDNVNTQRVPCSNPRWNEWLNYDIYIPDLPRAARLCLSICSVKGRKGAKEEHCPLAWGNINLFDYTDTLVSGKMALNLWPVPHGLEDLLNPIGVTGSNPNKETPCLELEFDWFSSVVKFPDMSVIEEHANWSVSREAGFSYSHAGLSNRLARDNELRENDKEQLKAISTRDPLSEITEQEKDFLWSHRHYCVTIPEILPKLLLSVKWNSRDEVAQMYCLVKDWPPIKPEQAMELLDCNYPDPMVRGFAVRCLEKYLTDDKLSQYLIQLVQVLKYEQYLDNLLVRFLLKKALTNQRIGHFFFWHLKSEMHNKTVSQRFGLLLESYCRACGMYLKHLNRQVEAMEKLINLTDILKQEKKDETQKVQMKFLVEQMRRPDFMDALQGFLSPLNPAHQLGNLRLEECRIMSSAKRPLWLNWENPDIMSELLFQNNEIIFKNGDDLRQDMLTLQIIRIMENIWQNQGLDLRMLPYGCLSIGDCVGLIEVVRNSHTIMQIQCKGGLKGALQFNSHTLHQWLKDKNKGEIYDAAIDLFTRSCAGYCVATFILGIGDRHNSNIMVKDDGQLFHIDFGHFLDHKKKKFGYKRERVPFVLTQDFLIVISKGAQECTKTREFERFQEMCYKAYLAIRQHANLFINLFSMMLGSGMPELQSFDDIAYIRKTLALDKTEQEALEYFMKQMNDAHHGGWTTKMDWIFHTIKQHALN
Chain of PI3Kα (P27986 whole entry partner): as the sequence (P27986 whole entry partner) above
Experimental: as §1
• 1. Buffer preparation: 50 mM HEPES, pH 7.5, 3 mM MgCl2, 1 mM EGTA, 100 mM NaCl, 0.03% CHAPS. • 2. Compound was formulated in 100% DMSO in a concentration gradient, and added to a 384-well plate to a final DMSO concentration of 1%. • 3. PI3Kα, PI3Kδ, PI3Kβ and PI3Kγ enzymes were diluted to an optimum concentration with the following buffer: 50 mM HEPES, pH 7.5, 3 mM MgCl2, 1 mM EGTA, 100 mM NaCl, 0.03% CHAPS, 2 mM DTT, and transferred to a 384-well plate and incubated with the compound for a certain time. • 4. Substrate was diluted to an optimum concentration with the following buffer: 50 mM HEPES, pH 7.5, 3 mM MgCl2, 1 mM EGTA, 100 mM NaCl, 0.03% CHAPS, 2 mM DTT, 50 μM PIP2, 25 μM ATP; then added to a 384-well plate to initiate the reaction, and for PI3Kα, PI3Kβ and PI3Kγ at room temperature reacted for 1 hr, for PI3Kδ at room temperature reacted for 2 hrs. For PI3Kβ and PI3Kγ, it was still necessary to further add 10 μL ADP-Glo Detection Reagent, and then equilibrated at room temperature for 30 minutes. • 5. Read Luminescense with FlexStation, and calculate the inhibition rate as the average of two tests.

Structure (SMILES): CS(=O)(=O)N1CCN(Cc2csc3c(-c4c(F)ccc5[nH]ccc45)nc(N4CCOCC4)nc23)CC1 [Compound 1]
IC50 [1]: 105 nM
α/δ selectivity [2]: 12

Structure (SMILES): Cc1cc2c(-c3nc(N4CCOCC4)nc4c(CN5CCC(C(C)(C)O)CC5)csc34)cccc2[nH]1 [Compound 6]
IC50 [1]: 145 nM
α/δ selectivity [2]: >69

Structure (SMILES): c1cc(-c2nc(N3CCOCC3)nc3c(CN4CCC(N5CCOCC5)CC4)csc23)c2cc[nH]c2c1 [Compound 9]
IC50 [1]: 50 nM
α/δ selectivity [2]: >200

Structure (SMILES): O=C(CO)N1CCN(Cc2csc3c(-c4cccc5[nH]ccc45)nc(N4CCOCC4)nc23)CC1 [Compound 12]
IC50 [1]: 17 nM
α/δ selectivity [2]: 133

Structure (SMILES): CC(C)(O)CN1CCN(Cc2csc3c(-c4cccc5[nH]ccc45)nc(N4CCOCC4)nc23)CC1 [Compound 13]
IC50 [1]: 52 nM
α/δ selectivity [2]: >192

Structure (SMILES): CC(C)(C)N1CCN(Cc2csc3c(-c4cccc5[nH]ccc45)nc(N4CCOCC4)nc23)CC1 [Compound 15]
IC50 [1]: 34 nM
α/δ selectivity [2]: >294

Structure (SMILES): Cc1oc2ccccc2c1-c1nc(N2CCOCC2)nc2c(CN3CCN(C(=O)C(C)C)CC3)csc12 [Compound 16]
IC50 [1]: 567 nM
α/δ selectivity [2]: 18

Structure (SMILES): CC(C)(O)C1CCN(Cc2csc3c(-c4ccnc5[nH]ccc45)nc(N4CCOCC4)nc23)CC1 [Compound 17]
IC50 [1]: 53 nM
α/δ selectivity [2]: 74

Structure (SMILES): CCC(=O)N1CCN(Cc2csc3c(-c4cnn(C)c4)nc(N4CCOCC4)nc23)CC1 [Compound 18]
IC50 [1]: 86 nM
α/δ selectivity [2]: 58

Structure (SMILES): CC(C)C(=O)N1CCN(Cc2csc3c(-c4cnn(C)c4)nc(N4CCOCC4)nc23)CC1 [Compound 19]
IC50 [1]: 87 nM
α/δ selectivity [2]: 49

Structure (SMILES): Cc1cn(-c2nc(N3CCOCC3)nc3c(CN4CCN(C(=O)C(C)C)CC4)csc23)c(C)n1 [Compound 20]
IC50 [1]: 66 nM
α/δ selectivity [2]: 54

Structure (SMILES): Cc1nn(C)c(C)c1-c1nc(N2CCOCC2)nc2c(CN3CCN(C(=O)C(C)C)CC3)csc12 [Compound 21]
IC50 [1]: 150 nM
α/δ selectivity [2]: 19

Structure (SMILES): Cc1nc(Cl)cn1-c1nc(N2CCOCC2)nc2c(CN3CCN(C(=O)C(C)C)CC3)csc12 [Compound 23]
IC50 [1]: 27 nM
α/δ selectivity [2]: 40

Structure (SMILES): COc1ncc(-c2nc(N3CCOCC3)nc3c(CN4C[C@@H](C)O[C@@H](C)C4)csc23)cc1NS(C)(=O)=O [Compound 27]
IC50 [1]: 99 nM
α/δ selectivity [2]: 10

Structure (SMILES): COc1ncc(-c2nc(N3CCOCC3)nc3c(CN4CCN(C(=O)OC(C)(C)C)CC4)csc23)cc1NS(C)(=O)=O [Compound 28]
IC50 [1]: 35 nM
α/δ selectivity [2]: 56

Structure (SMILES): COc1ncc(-c2nc(N3CCOCC3)nc3c(CN4CCN(C5COC5)CC4)csc23)cc1NS(C)(=O)=O [Compound 29]
IC50 [1]: 6.9 nM
α/δ selectivity [2]: 34

Structure (SMILES): CC(C)C(=O)N1CCN(Cc2csc3c(-n4ccnc4C(F)(F)F)nc(N4CCOCC4)nc23)CC1 [Compound 30]
IC50 [1]: 71 nM
α/δ selectivity [2]: 36

Structure (SMILES): CC(C)C(=O)N1CCN(Cc2csc3c(-c4cncc(NS(C)(=O)=O)c4)nc(N4CCOCC4)nc23)CC1 [Compound 31]
IC50 [1]: 4.9 nM
α/δ selectivity [2]: 10

Structure (SMILES): COc1ncc(-c2nc(N3CCOCC3)nc3c(CN4CCN(C(C)=O)CC4)csc23)cc1NS(C)(=O)=O [Compound 32]
IC50 [1]: 4.3 nM
α/δ selectivity [2]: 15

Structure (SMILES): COc1ncc(-c2nc(N3CCOCC3)nc3c(CN4CCN(C5CCOCC5)CC4)csc23)cc1NS(C)(=O)=O [Compound 33]
IC50 [1]: 4.2 nM
α/δ selectivity [2]: 51

Structure (SMILES): COc1ncc(-c2nc(N3CCOCC3)nc3c(CN4CCN(C(C)(C)C)CC4)csc23)cc1NS(C)(=O)=O [Compound 34]
IC50 [1]: 3.4 nM
α/δ selectivity [2]: 44

Structure (SMILES): COc1ncc(-c2nc(N3CCOCC3)nc3c(CN4CCOCC4)csc23)cc1NS(C)(=O)=O [Compound 36]
IC50 [1]: 13 nM
α/δ selectivity [2]: 23

Structure (SMILES): Cc1cn(-c2nc(N3CCOCC3)nc3c(CN4CCN(C(=O)C5CC5)CC4)csc23)c(C)n1 [Compound 37]
IC50 [1]: 28.9 nM
α/δ selectivity [2]: 38

Structure (SMILES): COc1ncc(-c2nc(N3CCOCC3)nc3ccoc23)cc1NS(C)(=O)=O [Compound 38]
IC50 [1]: 108 nM
α/δ selectivity [2]: 3

Structure (SMILES): COc1ncc(-c2nc(N3CCOCC3)nc3c(CN4CCN(C5CCN(C)CC5)CC4)csc23)cc1NS(C)(=O)=O [Compound 39]
IC50 [1]: 9.2 nM
α/δ selectivity [2]: 159

Structure (SMILES): COc1ncc(-c2nc(N3CCOCC3)nc3c(CN4CCN(C(=O)C5CCCCC5)CC4)csc23)cc1NS(C)(=O)=O [Compound 40]
IC50 [1]: 17 nM
α/δ selectivity [2]: 41

Structure (SMILES): COc1ncc(-c2nc(N3CCOCC3)nc3c(CN4CCC(C(C)(C)O)CC4)csc23)cc1NS(=O)(=O)c1ccccc1 [Compound 41]
IC50 [1]: 11.4 nM
α/δ selectivity [2]: 323

Structure (SMILES): COc1ncc(-c2nc(N3CCOCC3)nc3c(CN4CCC(C(=O)NCC(F)(F)F)CC4)csc23)cc1NS(C)(=O)=O [Compound 42]
IC50 [1]: 13 nM
α/δ selectivity [2]: 152

Structure (SMILES): COc1ncc(-c2nc(N3CCOCC3)nc3c(CN4CCC(N(C)C)CC4)csc23)cc1NS(C)(=O)=O [Compound 43]
IC50 [1]: 4 nM
α/δ selectivity [2]: 105

Structure (SMILES): COc1ncc(-c2nc(N3CCOCC3)nc3c(CN4CCN(C(=O)C(C)(C)C)CC4)csc23)cc1NS(C)(=O)=O [Compound 46]
IC50 [1]: 6.1 nM
α/δ selectivity [2]: 23

Structure (SMILES): COc1ncc(-c2nc(N3CCOCC3)nc3c(CN4CCN(C)CC4)csc23)cc1NS(C)(=O)=O [Compound 51]
IC50 [1]: 11 nM
α/δ selectivity [2]: 103

Structure (SMILES): COc1ncc(-c2nc(N3CCOCC3)nc3c(CN4CCC(N(C)C(C)C)CC4)csc23)cc1NS(C)(=O)=O [Compound 58]
IC50 [1]: 5.4 nM
α/δ selectivity [2]: 150

Second part, the compound after the results:

IC50 [1]: 3.5 nM
α/δ selectivity [2]: 9
Structure (SMILES): COc1ncc(-c2nc(N3CCOCC3)nc3c(CN4CCN(C(=O)C(C)C)CC4)csc23)cc1NS(C)(=O)=O [Compound 47]

IC50 [1]: 6.9 nM
α/δ selectivity [2]: 52
Structure (SMILES): COc1ncc(-c2nc(N3CCOCC3)nc3c(CN4CC5CC4CN5C4COC4)csc23)cc1NS(C)(=O)=O (stereo not shown) [Compound 48]

IC50 [1]: 5.7 nM
α/δ selectivity [2]: 15
Structure (SMILES): COc1ncc(-c2nc(N3CCOCC3)nc3c(CN4CCN(C(=O)N5CCCC5)CC4)csc23)cc1NS(C)(=O)=O [Compound 49]

IC50 [1]: 13 nM
α/δ selectivity [2]: 359
Structure (SMILES): COc1ncc(-c2nc(N3CCOCC3)nc3c(CN4CCC(C(C)(C)O)CC4)csc23)cc1NS(=O)(=O)C1CC1 [Compound 50]

IC50 [1]: 36 nM
α/δ selectivity [2]: 252
Structure (SMILES): COc1ncc(-c2nc(N3CCOCC3)nc3c(CN4CCC(N(C)C(=O)OC(C)(C)C)CC4)csc23)cc1NS(C)(=O)=O [Compound 52]

IC50 [1]: 19 nM
α/δ selectivity [2]: 110
Structure (SMILES): COc1ncc(-c2nc(N3CCOCC3)nc3c(CN4CC(C(C)(C)O)C4)csc23)cc1NS(C)(=O)=O [Compound 53]

IC50 [1]: 2.7 nM
α/δ selectivity [2]: 108
Structure (SMILES): COc1ncc(-c2nc(N3CCOCC3)nc3c(CN4CCC(C(C)(C)OC)CC4)csc23)cc1NS(C)(=O)=O [Compound 54]

IC50 [1]: 5.6 nM
α/δ selectivity [2]: 224
Structure (SMILES): COc1ncc(-c2nc(N3CCOCC3)nc3c(CN4CCC(N5C[C@@H](C)O[C@@H](C)C5)CC4)csc23)cc1NS(C)(=O)=O [Compound 55]

IC50 [1]: 7.6 nM
α/δ selectivity [2]: 293
Structure (SMILES): CCN(C)C1CCN(Cc2csc3c(-c4cnc(OC)c(NS(C)(=O)=O)c4)nc(N4CCOCC4)nc23)CC1 [Compound 56]

IC50 [1]: 2.8 nM
α/δ selectivity [2]: 103
Structure (SMILES): COc1ncc(-c2nc(N3CCOCC3)nc3c(CN4CCN(C(C)(C)C(N)=O)CC4)csc23)cc1NS(C)(=O)=O [Compound 57]

IC50 [1]: 4.7 nM
α/δ selectivity [2]: 12
Structure (SMILES): COc1ncc(-c2nc(N3CCOCC3)nc3c(CN4CCN(S(C)(=O)=O)CC4)c(C)sc23)cc1NS(C)(=O)=O [Compound 61]

IC50 [1]: 5.6 nM
α/δ selectivity [2]: 104
Structure (SMILES): COc1ncc(-c2nc(N3CCOCC3)nc3c(CN4CCN(C(=O)C(F)(F)F)CC4)csc23)cc1NS(C)(=O)=O [Compound 62]

IC50 [1]: 12 nM
α/δ selectivity [2]: 27
Structure (SMILES): COc1ncc(-c2nc(N3CCOCC3)nc3c(CN4CCN(C(=O)NCC(F)(F)F)CC4)csc23)cc1NS(C)(=O)=O [Compound 63]

IC50 [1]: 9.1 nM
α/δ selectivity [2]: 110
Structure (SMILES): COc1ncc(-c2nc(N3CCOCC3)nc3c(CN4CCN(CC(F)(F)F)CC4)csc23)cc1NS(C)(=O)=O [Compound 64]

IC50 [1]: 3.6 nM
α/δ selectivity [2]: 195
Structure (SMILES): COc1ncc(-c2nc(N3CCOCC3)nc3c(CN4CCN(C(C)(C)C)CC4)csc23)cc1NS(=O)(=O)C1CC1 [Compound 67]
